For one assay, the system named is Jurkat T cells. The assay is described as follows: Apoptosis assay (TUNEL, flow cytometry). The conditions noted are these: 3 μM, 24 hours. In kind it is cell-based. On the procedure:
To determine the mechanism behind the ability of SCY to inhibit cell proliferation, about 2×10^5 Jurkat T cells/ml were treated with vehicle (negative control), 3 μM SCY, or 3 μM camptothecin (positive control) a (0.1% DMSO[final]) and incubated at 37° C., 5% CO2 for 24 hours. As a positive control, camptothecin, a DNA topoisomerase inhibitor, was used because of its ability to arrest Jurkat cells at the G2/M phase of the cell cycle and induce the cells to undergo apoptosis. The cells were fixed in 1% paraformaldehyde, washed once with PBS, and stored in 70% EtOH at−20° C. Apoptosis was measured using the Promega Apoptosis Detection System (Promega, Madison, Wis.) an adapted TUNEL staining method.
The cells were washed two times with 5 ml PBS 2% FBS, then transferred to a microcentrifuge tube in 1 ml PBS, 0.2% Triton×100, 5 mg/ml BSA and incubated on ice for 5 minutes. Samples were spun, PBS solution removed, then resuspended in 80 μl equilibration buffer from Promega kit and incubated at room temperature for 10 minutes. Then the samples were spun and the equilibration buffer removed. A nucleotide mix comprising 45 μl equilibration buffer, 5 μl nucleotide mix, 1 μl Tdt enzyme per sample, was used to resuspend each sample in the dark. The cells were incubated in the dark at 37° C. for 1 hour. The reaction was terminated by the addition of 20 mM EDTA. The samples were washed twice with 1 ml RNAse A and a small aliquot, about 50 μl, was viewed under a microscope. Cells were stained with fluoroscein and then counterstained with propidium iodide and analyzed for DNA content and fragmentation using a Becton-Dickinson FacsSort (Becton-Dickinson, San Jose, Calif.).
A general note: A flow cytometer gives signals particle by particle.

The subject of assay [1] is PMA-induced cell proliferation in mouse ear epidermis. Put plainly: Mouse ear cell proliferation assay (IUdR incorporation, PCNA histology). In kind it is in vivo. The conditions noted are these: +PMA 4 μg/ear; scytonemin 1 mg/ear, dexamethasone 0.15 mg/ear. On the procedure:
To determine the efficacy of scytonemin as an anti-proliferative agent in vivo, the following assay was conducted. On day one, test compounds were delivered in 10 μl 20% DMSO, 80% acetone and applied to both the inner and outer pinnae of left ears (20 μl total) of male, Swiss Webster mice (Taconic Farms, Germantown, N.Y.). The right ears received only vehicle. One hour post test compound application, 4 μg/ear PMA (Sigma, St. Louis, Mo.) in 10 μl acetone was applied to the inner pinnae of each left ear and 10 μl acetone was applied to each right ear. Four hours post test compound application, the each test compound was again applied in the same manner. On day two, the test compounds were applied twice with a four-hour interval between each application. On day three, the test compounds and PMA were applied as they had been on day one.
One hour after the final test compound applications, each mouse was injected with 0.6 ml of a solution containing the thymidine analogue, 5-iodo-I^125-2′-deoxyuridine (IUdR) (2 μCi-I^125/mouse) and, to inhibit the endogenous deoxythymidilic acid synthetase, fluorodeoxyuridine (FUdR) ([…]). This IUdR/FUdR solution was made up in RPMI 1640 media. Eighteen hours post injection, the mice were euthanized via CO2 inhalation, the ears were excised and soaked individually in a 70% EtOH solution overnight.
IUdR incorporation was then measured using a Beckman Gamma counter, Model 5500B. […] Therefore, scytoneman compounds may be used to reduce, prevent, inhibit, modulate, or attenuate cell proliferation.
Additionally, immunostaining with Proliferating Cell Nuclear Antigen (PCNA) was used as a proliferation marker to identify proliferating cells. PCNA is a cofactor for DNAt […]. Expression levels of PCNA fluctuate over the cell cycle. […] Low expression levels of PCNA indicate non-cycling cells.
Histological analysis was used to determine the effect of scytonemin on the thickness of the epidermal layer of skin, the mitotic index of cells in the epidermal layer, the number of cells in the epidermis, and the amount of immune cell infiltration. PCNA antibodies were used to detect the presence of PCNA in cells and a peroxidase-Ni/DAB development system was used to stain PCNA-positive cells black and hematoxlin was used as a nuclear blue counterstain using conventional methods.

Regarding `CC[C@@]1(O)C(=O)OCc2c1cc1n(c2=O)Cc2cc3ccccc3nc2-1` [camptothecin, reference compound], in the assay on Jurkat T cells, the “cells induced to undergo apoptosis” value stood at 71% and the “effect on cell cycle progression” value is “arrested the cells at G2/M phase”.
With `C[C@@H]1C[C@H]2[C@@H]3CCC4=CC(=O)C=C[C@]4(C)[C@@]3(F)[C@@H](O)C[C@]2(C)[C@@]1(O)C(=O)CO` [dexamethasone, reference compound], the “cells actively proliferating (PCNA staining)” value in assay [1] is “about 60%”.
